Consider one molecule from patent publication EP4782437A1, “HETEROARYL COMPOUND, AND PREPARATION METHOD THEREFOR AND USE THEREOF IN MEDICINE” (Jiangsu Hengrui Pharmaceuticals Co., Ltd., priority 2023, dated 2025).

Molecules are shown by their SMILES.

This assay addresses T1, BTK recombinant human protein (Homo sapiens, UniProt Q06187).
T1 construct: purchased Thermo PV3363
The assay can be described thus: Inhibitory activity against BTK (HTRF KinEASE-TK kit). The format is biochemical. Particulars: 2 nM BTK, 10 µM ATP, 0.5 hours preincubation at 25°C; read-out: IC50 values of inhibitory activity against BTK. The method in brief: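 Assay used 2 nM BTK and 50 nM SEB in 1× kinase buffer with 10 mM MgCl2, 1 mM MnCl2 and 1 mM DTT; compounds ran as 10-point 3-fold dilutions from 200× stocks of 200 µM and were preincubated with enzyme 0.5 h at 25°C. ATP-started phosphorylation of TK-substrate-biotin was read by HTRF and converted to % inhibition.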

T1 sequence (Q06187 whole entry): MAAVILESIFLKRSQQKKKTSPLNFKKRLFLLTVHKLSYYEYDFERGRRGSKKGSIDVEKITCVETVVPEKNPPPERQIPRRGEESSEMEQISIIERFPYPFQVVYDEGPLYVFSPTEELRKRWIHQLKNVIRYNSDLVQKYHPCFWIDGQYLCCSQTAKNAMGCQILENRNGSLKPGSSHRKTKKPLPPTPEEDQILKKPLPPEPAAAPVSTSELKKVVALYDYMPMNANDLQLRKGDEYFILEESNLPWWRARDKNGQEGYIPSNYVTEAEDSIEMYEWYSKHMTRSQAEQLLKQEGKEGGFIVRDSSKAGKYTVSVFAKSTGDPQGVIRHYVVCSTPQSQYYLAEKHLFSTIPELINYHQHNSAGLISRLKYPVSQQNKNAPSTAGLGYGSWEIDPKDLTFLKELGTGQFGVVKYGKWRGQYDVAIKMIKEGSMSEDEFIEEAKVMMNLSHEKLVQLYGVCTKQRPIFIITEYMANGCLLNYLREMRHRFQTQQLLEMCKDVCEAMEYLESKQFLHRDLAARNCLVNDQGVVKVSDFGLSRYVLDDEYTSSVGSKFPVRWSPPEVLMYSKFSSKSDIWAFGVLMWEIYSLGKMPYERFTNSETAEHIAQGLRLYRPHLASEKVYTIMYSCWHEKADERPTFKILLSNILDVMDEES

In the case of `C=CC(=O)N(C)CCOc1c(N)ncnc1-c1cc(F)cc(NC(=O)c2cc3c(cc2F)C2(CC2)CO3)c1C` [Example 3, N-(3-(6-amino-5-(2-(N-methacrylamido)ethoxy)pyrimidin-4-yl)-5-fluoro-2-methylphenyl)-5-fluoro-2H-spiro[benzofuran-3,1'-cyclopropane]-6-carboxamide], the half-maximal inhibitory concentration (IC50) stood at 8.3 nM.
